From patent US12215140B2, “Method of stabilizing protein contained in specimen and solution for stabilizing protein contained in specimen” (EIKEN KAGAKU KABUSHIKI KAISHA, priority 2018, dated 2025)

Test system: hemoglobin-haptoglobin complex
Experiment: Stability of hemoglobin (as hemoglobin-haptoglobin complex) in samples preserved at 37° C. in preservation solution containing 1 unit/L haptoglobin, Hb measured by latex agglutination method (Examples 1 to 7)
Set-up: species or system human
Conditions: for Hb concentration / Recovery ratio with respect to Hb concentration after 0 days: 37° C.
Procedure: Preservation solutions were prepared with the addition of 40 mmol/L HEPES (pH 6.8), 0.1% BSA, 0.1% NaN3, 1 unit/L haptoglobin, and 0 to 100 mmol/L phenylboronic acid. Samples obtained by adding hemoglobin-added fecal specimens to the preservation solutions so that the fecal concentration would be 0.5% were preserved at 37° C. for 0, 7, 14, and 21 days. The fecal specimens were added with hemoglobin having an amount such that the hemoglobin concentration in the samples would be about 300 μg/L. Instead of the fecal specimens to which hemoglobin was added, samples containing no fecal specimens, in which hemoglobin was added to the preservation solutions so that the hemoglobin concentration in the samples would be 300 μg/L, were similarly preserved. The hemoglobin (Hb) concentrations (μg/L) in the preserved samples were measured by the latex agglutination method.
The concentrations of hemoglobin were measured using “OC-Hemodia (registered trademark) Auto III ‘EIKEN’” (available from EIKEN CHEMICAL CO., LTD.) as a measurement reagent and “OC-sensor DIANA” (available from EIKEN CHEMICAL CO., LTD.) as a measurement device. The above measurement reagent contains latex particles immobilizing an anti-human hemoglobin rabbit polyclonal antibody.
From the measured concentrations of hemoglobin, the recovery ratios (%) were calculated with respect to the hemoglobin concentrations immediately after the fecal specimens were added to the preservation solutions (i.e., concentrations 0 days after the fecal specimens were added).
(§1) For comparative examples, preservation solutions to which no arylboronic acid was added were prepared, and testing was conducted in the same manner.
(§2) The concentration of phenylboronic acid in the preservation solutions of Example 1 was fixed to 15 mmol/L, preservation solutions to which a sugar (sorbitol, sucrose, trehalose, glucose, fructose, or mannitol) was further added at 50 mmol/L or 100 mmol/L or preservation solutions to which no sugar was added were prepared, and testing was conducted in the same manner as in Example 1. For comparative examples, preservation solutions to which the phenylboronic acid and sugar were not added were prepared, and testing was conducted in the same manner.
Preservation solutions in which sorbitol, sucrose, trehalose, glucose, fructose, or mannitol was added at 100 mmol/L to the preservation solutions of Example 1 containing no phenylboronic acid were prepared, and testing was conducted in the same manner as in Example 1. For comparison, the same testing was conducted without adding these sugars.
as §2, with “sorbitol” for “a sugar (sorbitol, sucrose, trehalose, glucose, fructose, or mannitol)”, “was” for “was further”, “10 to 500” for “50”, “sucrose was added at 10 to 250” for “100”
as §1

[1] = Feces 1, sugar 50 mmol/L + phenylboronic acid 15 mmol/L, 0 days
[2] = Feces 1, sugar 50 mmol/L + phenylboronic acid 15 mmol/L, 7 days
[3] = Feces 1, sugar 50 mmol/L + phenylboronic acid 15 mmol/L, 14 days
[4] = Feces 1, sugar 50 mmol/L + phenylboronic acid 15 mmol/L, 21 days
[5] = Feces 1, sugar 100 mmol/L + phenylboronic acid 15 mmol/L, 0 days
[6] = Feces 1, sugar 100 mmol/L + phenylboronic acid 15 mmol/L, 7 days
[7] = Feces 1, sugar 100 mmol/L + phenylboronic acid 15 mmol/L, 14 days
[8] = Feces 1, sugar 100 mmol/L + phenylboronic acid 15 mmol/L, 21 days
[9] = Feces 1, sugar 100 mmol/L, no phenylboronic acid, 0 days
[10] = Feces 1, sugar 100 mmol/L, no phenylboronic acid, 7 days
[11] = Feces 1, sugar 100 mmol/L, no phenylboronic acid, 14 days
[12] = Feces 1, sugar 100 mmol/L, no phenylboronic acid, 21 days
[13] = Feces 2, sugar 50 mmol/L + phenylboronic acid 15 mmol/L, 0 days
[14] = Feces 2, sugar 50 mmol/L + phenylboronic acid 15 mmol/L, 7 days
[15] = Feces 2, sugar 50 mmol/L + phenylboronic acid 15 mmol/L, 14 days
[16] = Feces 2, sugar 50 mmol/L + phenylboronic acid 15 mmol/L, 21 days
[17] = Feces 2, sugar 100 mmol/L + phenylboronic acid 15 mmol/L, 0 days
[18] = Feces 2, sugar 100 mmol/L + phenylboronic acid 15 mmol/L, 7 days
[19] = Feces 2, sugar 100 mmol/L + phenylboronic acid 15 mmol/L, 14 days
[20] = Feces 2, sugar 100 mmol/L + phenylboronic acid 15 mmol/L, 21 days
[21] = Feces 2, sugar 100 mmol/L, no phenylboronic acid, 0 days
[22] = Feces 2, sugar 100 mmol/L, no phenylboronic acid, 7 days
[23] = Feces 2, sugar 100 mmol/L, no phenylboronic acid, 14 days
[24] = Feces 2, sugar 100 mmol/L, no phenylboronic acid, 21 days
[25] = Feces 3, sugar 50 mmol/L + phenylboronic acid 15 mmol/L, 0 days
[26] = Feces 3, sugar 50 mmol/L + phenylboronic acid 15 mmol/L, 7 days
[27] = Feces 3, sugar 50 mmol/L + phenylboronic acid 15 mmol/L, 14 days
[28] = Feces 3, sugar 50 mmol/L + phenylboronic acid 15 mmol/L, 21 days
[29] = Feces 3, sugar 100 mmol/L + phenylboronic acid 15 mmol/L, 0 days
[30] = Feces 3, sugar 100 mmol/L + phenylboronic acid 15 mmol/L, 7 days
[31] = Feces 3, sugar 100 mmol/L + phenylboronic acid 15 mmol/L, 14 days
[32] = Feces 3, sugar 100 mmol/L + phenylboronic acid 15 mmol/L, 21 days
[33] = Feces 3, sugar 100 mmol/L, no phenylboronic acid, 0 days
[34] = Feces 3, sugar 100 mmol/L, no phenylboronic acid, 7 days
[35] = Feces 3, sugar 100 mmol/L, no phenylboronic acid, 14 days
[36] = Feces 3, sugar 100 mmol/L, no phenylboronic acid, 21 days
[37] = No feces, sugar 50 mmol/L + phenylboronic acid 15 mmol/L, 0 days
[38] = No feces, sugar 50 mmol/L + phenylboronic acid 15 mmol/L, 7 days
[39] = No feces, sugar 50 mmol/L + phenylboronic acid 15 mmol/L, 14 days
[40] = No feces, sugar 50 mmol/L + phenylboronic acid 15 mmol/L, 21 days
[41] = No feces, sugar 100 mmol/L + phenylboronic acid 15 mmol/L, 7 days
[42] = No feces, sugar 100 mmol/L + phenylboronic acid 15 mmol/L, 14 days
[43] = No feces, sugar 100 mmol/L + phenylboronic acid 15 mmol/L, 21 days
[44] = No feces, sugar 100 mmol/L, no phenylboronic acid, 0 days
[45] = No feces, sugar 100 mmol/L, no phenylboronic acid, 7 days
[46] = No feces, sugar 100 mmol/L, no phenylboronic acid, 14 days
[47] = No feces, sugar 100 mmol/L, no phenylboronic acid, 21 days

With O=C(CO)[C@@H](O)[C@H](O)[C@H](O)CO [Fructose, fructose] the Hb concentration [1] was 297 µg/L, the “Recovery ratio with respect to Hb concentration after 0 days” value (shortened to “Recovery ratio … after 0 days”) [1] was 100% and the Hb concentration [2] was 294 µg/L. For the same molecule, the “Recovery ratio … after 0 days” value [2] was 99%, the Hb concentration [3] was 285 µg/L and the “Recovery ratio … after 0 days” value [3] was 96%. The Hb concentration [4] was 280 µg/L, the “Recovery ratio … after 0 days” value [4] was 94% and the Hb concentration [5] was 287 µg/L. The “Recovery ratio … after 0 days” value [5] was 100%, the Hb concentration [6] was 276 µg/L and the “Recovery ratio … after 0 days” value [6] was 96%. For the same molecule, the Hb concentration [7] was 247 µg/L, the “Recovery ratio … after 0 days” value [7] was 86% and the Hb concentration [8] was 228 µg/L. The “Recovery ratio … after 0 days” value [8] was 79%, the Hb concentration [9] was 285 µg/L and the “Recovery ratio … after 0 days” value [9] was 100%. For the same molecule, the Hb concentration [10] was 127 µg/L, the “Recovery ratio … after 0 days” value [10] was 45% and the Hb concentration [11] was 85 µg/L. For the same molecule, the “Recovery ratio … after 0 days” value [11] was 30%, the Hb concentration [12] was 81 µg/L and the “Recovery ratio … after 0 days” value [12] was 28%. For the same molecule, the Hb concentration [13] was 270 µg/L, the “Recovery ratio … after 0 days” value [13] was 100% and the Hb concentration [14] was 275 µg/L. The “Recovery ratio … after 0 days” value [14] was 102%, the Hb concentration [15] was 243 µg/L and the “Recovery ratio … after 0 days” value [15] was 90%. The Hb concentration [16] was 222 µg/L, the “Recovery ratio … after 0 days” value [16] was 82% and the Hb concentration [17] was 280 µg/L. For the same molecule, the “Recovery ratio … after 0 days” value [17] was 100%, the Hb concentration [18] was 264 µg/L and the “Recovery ratio … after 0 days” value [18] was 94%. The Hb concentration [19] was 235 µg/L, the “Recovery ratio … after 0 days” value [19] was 84% and the Hb concentration [20] was 212 µg/L. The “Recovery ratio … after 0 days” value [20] was 76%, the Hb concentration [21] was 273 µg/L and the “Recovery ratio … after 0 days” value [21] was 100%. The Hb concentration [22] was 100 µg/L, the “Recovery ratio … after 0 days” value [22] was 37% and the Hb concentration [23] was 56 µg/L. The “Recovery ratio … after 0 days” value [23] was 21%, the Hb concentration [24] was 35 µg/L and the “Recovery ratio … after 0 days” value [24] was 13%. The Hb concentration [25] was 272 µg/L, the “Recovery ratio … after 0 days” value [25] was 100% and the Hb concentration [26] was 238 µg/L. For the same molecule, the “Recovery ratio … after 0 days” value [26] was 88%, the Hb concentration [27] was 218 µg/L and the “Recovery ratio … after 0 days” value [27] was 80%. The Hb concentration [28] was 203 µg/L, the “Recovery ratio … after 0 days” value [28] was 75% and the Hb concentration [29] was 276 µg/L. The “Recovery ratio … after 0 days” value [29] was 100%, the Hb concentration [30] was 244 µg/L and the “Recovery ratio … after 0 days” value [30] was 88%. For the same molecule, the Hb concentration [31] was 222 µg/L, the “Recovery ratio … after 0 days” value [31] was 80% and the Hb concentration [32] was 204 µg/L. The “Recovery ratio … after 0 days” value [32] was 74%, the Hb concentration [33] was 265 µg/L and the “Recovery ratio … after 0 days” value [33] was 100%. For the same molecule, the Hb concentration [34] was 83 µg/L, the “Recovery ratio … after 0 days” value [34] was 31% and the Hb concentration [35] was 41 µg/L. The “Recovery ratio … after 0 days” value [35] was 15%, the Hb concentration [36] was 39 µg/L and the “Recovery ratio … after 0 days” value [36] was 15%. The Hb concentration [37] was 286 µg/L, the “Recovery ratio … after 0 days” value [37] was 100% and the Hb concentration [38] was 255 µg/L. The “Recovery ratio … after 0 days” value [38] was 89%, the Hb concentration [39] was 261 µg/L and the “Recovery ratio … after 0 days” value [39] was 91%. For the same molecule, the Hb concentration [40] was 275 µg/L, the “Recovery ratio … after 0 days” value [40] was 96% and the “Recovery ratio … after 0 days” value (No feces, sugar 100 mmol/L + phenylboronic acid 15 mmol/L, 0 days) was 100%. The Hb concentration [41] was 245 µg/L, the “Recovery ratio … after 0 days” value [41] was 87% and the Hb concentration [42] was 251 µg/L. The “Recovery ratio … after 0 days” value [42] was 89%, the Hb concentration [43] was 262 µg/L and the “Recovery ratio … after 0 days” value [43] was 93%. For the same molecule, the Hb concentration [44] was 250 µg/L, the “Recovery ratio … after 0 days” value [44] was 100% and the Hb concentration [45] was 215 µg/L. For the same molecule, the “Recovery ratio … after 0 days” value [45] was 86%, the Hb concentration [46] was 196 µg/L and the “Recovery ratio … after 0 days” value [46] was 78%. The Hb concentration [47] was 177 µg/L, the “Recovery ratio … after 0 days” value [47] was 71% and the “recovery ratio of hemoglobin in the samples containing fecal specimens” value (sugar 100 mmol/L, preservation solutions containing no phenylboronic acid) was “does not improve”. For the same molecule, the “recovery ratio of hemoglobin in the sample” value (sugar 50 or 100 mmol/L further added to phenylboronic acid 15 mmol/L, Feces 1, Feces 2, Feces 3) was “further improved”.
